These results are taken from patent US10080756B2, “Combination methods for treating cancers” (Gilead Sciences, Inc., priority 2014, dated 2018).

By EC50 is commonly meant the concentration needed to bring the measured effect to its halfway point.

One assay has as its system SU-DHL-2. Kind of assay: Cell Titer Glo viability assay, SU-DHL-2. Format: cell-based. To be noted: Homo sapiens; SU-DHL-2, DLBCL; single agent; 72 hours; read-out: Inhibition of Viability, EC50. The procedure: (§1) All procedures were performed at Gilead Sciences, Inc. in Branford, The compound of formula (I), cyclophosphamide, doxorubicin and vincristine sulfate were dissolved in DMSO to prepare stock solutions that were serially diluted three-fold in DMSO in a 96 well plate format at 1000× so the final starting assay concentrations tested would be 10 μM, 200 μM, 10 μM, and 1 μM respectively, for each compound. Compound plates were diluted 1:100 in RPMI without serum or additives creating a 10× stock. Cells were seeded into a 96-well plate at 10,000-20,000 cells per well in 100 μl of growth media appropriate to the cell line supplemented with 100 U/L penicillin-streptomycin. OCI-Ly3, OCI-Ly4 and OCI-Ly7 were grown in Iscove's+20% FBS, OCI-Ly19 was grown in alphaMEM+20% FBS, and all other cell lines were grown in RPMI+10% FBS. To each well, 11 μl of 10× compound was added in a final concentration of 0.1% DMSO and cells were incubated at 37° C. in 5% CO2 for 72 hours. Cell viability was assessed with Cell Titer Glo (Promega, Madison, Wis.) following the manufacturer's protocol on an Envision plate reader (Perkin Elmer, Waltham, Mass.). EC50 values were determined using a four parameter variable slope model with GraphPad Prism 6.0 software. All EC50 values represent mean values of from duplicate dose response curves.
(In general: Cellular ATP, detected with luciferase, serves as a proxy for viable cell number.)

The next assay has as its system SU-DHL-4. Nature of the assay: Cell Titer Glo viability assay, SU-DHL-4. Format: cell-based. The settings on record: Homo sapiens; SU-DHL-4, DLBCL; single agent; 72 hours; read-out: Inhibition of Viability, EC50. The procedure: as §1
Another assay relates to SU-DHL-6. Nature of the assay: Cell Titer Glo viability assay, SU-DHL-6. The settings on record: Homo sapiens; SU-DHL-6, DLBCL; single agent; 72 hours; read-out: Inhibition of Viability, EC50. In kind it is cell-based. The procedure:
as §1

In a further assay the test system is OCI-LY3. Kind of assay: Cell Titer Glo viability assay, OCI-LY3. The settings on record: Homo sapiens; OCI-LY3, DLBCL; single agent; 72 hours; read-out: Inhibition of Viability, EC50. In kind it is cell-based. The procedure:
as §1

In another assay the test system is OCI-LY4. Kind of assay: Cell Titer Glo viability assay, OCI-LY4. Format: cell-based. To be noted: OCI-LY4, DLBCL; single agent; 72 hours; read-out: Inhibition of Viability, EC50. The procedure:
as §1

In another assay the test system is Pfeiffer. Kind of assay: Cell Titer Glo viability assay, Pfeiffer. Format: cell-based. To be noted: Homo sapiens, DLBCL, single agent, 72 hours, read-out: Inhibition of Viability, EC50. The procedure:
as §1

The next assay concerns Mino. Nature of the assay: Cell Titer Glo viability assay, Mino. In kind it is cell-based. To be noted: Homo sapiens; Mino, MCL; single agent; 72 hours; read-out: Inhibition of Viability, EC50. The procedure:
as §1

The subject of the next assay is OPM-2. Nature of the assay: Cell Titer Glo viability assay, OPM-2. In kind it is cell-based. To be noted: Homo sapiens; OPM-2, MM; single agent; 72 hours; read-out: Inhibition of Viability, EC50. The procedure:
as §1

A further assay has as its system SU-DHL-10. Kind of assay: SU-DHL-10 mouse xenograft model of diffuse large B cell lymphoma, tumor growth. Format: in vivo. The settings on record: for complete or partial regressions (in words): single agents; for partial tumor regressions: treatment alone. The procedure:
Entospletinib was evaluated for efficacy in vivo as a single agent and in combination with vincristine in a subcutaneous cell line tumor xenograft model in male SCID beige mice using the human diffuse large B-cell lymphoma cell line, SU-DHL-10 in a 2×2 dose level matrix of Entospletinib and vincristine.
Formulation—Entospletinib was formulated in a complete vehicle of 0.5% HPMC-0.2% Tween 80 (pH 3.5 50 mM acetate buffer, and the lower dose was prepared by direct dilution). The high dose formulation was mixed using a stir bar (and Polytroned briefly as needed to break up clumps of compound) to form a yellow solution (pH=1.8), which became an opaque suspension within 30 minutes. The dosing suspension was prepared fresh daily and stored at 4° C. protected from light between treatments.
The formulation for the highest dose group of vincristine was prepared by diluting the stock solution with 0.9% sterile saline, and the lower dose was prepared by direct dilution of that stock with saline. […] The dosing formulations were prepared just prior to each treatment.
Male Harlan SCID beige mice (C.B-17/IcrHsd-Prkdc^scidLyst^bg-J) were used in this study. They were 6-7 weeks old on Day 1 of the experiment and were fed irradiated Harlan 2918.15 Rodent Diet and water ad libitum. Animals were housed in static cages with Bed-O'Cobs™ bedding (The Andersons Lab Bedding Products) inside Biobubble® Clean Rooms that provide H.E.P.A filtered air into the bubble environment at 100 complete air changes per hour. All treatments, body weight determinations, and tumor measurements were carried out in the bubble environment. The environment was controlled to a temperature range of 70°±2° F. and a humidity range of 30-70%.
SU-DHL-10 cells were obtained from Leibniz Institute DSMZ-German Collection of Microorganisms and Cell Cultures (DSMZ). They were grown in RPMI 1640 medium which was modified with 1% 100 mM Na pyruvate, 1% 1M HEPES buffer, 1% of a 45% glucose solution and supplemented with 10% non-heat-inactivated Fetal Bovine Serum (FBS) and 1% 100× Penicillin/Streptomycin/L-Glutamine (PSG). The growth environment was maintained in an incubator with a 5% CO2 atmosphere at 37° C. The cells were centrifuged at 200 rcf for 8 minutes at 8° C., the supernatant aspirated, and the pellet re-suspended in cold Dulbecco's Phosphate Buffered Saline (DPBS) by pipetting. An aliquot of the homogeneous cell suspension was diluted with a trypan blue solution and counted using a Luna automated cell counter. The pre-implantation cell viability was 91%. The cell suspension was centrifuged at 200 rcf for 8 minutes at 8° C. The supernatant was aspirated and the cell pellet was re-suspended in cold 50% serum-free medium:50% Matrigel® Matrix (Corning) to generate a final concentration of 2.5E+07 cells/ml. The cell suspension was maintained on wet ice during implantation. Following implantation, an aliquot of the remaining cells was diluted with a trypan blue solution and counted to determine the post-implantation cell viability (91%). Test animals were implanted subcutaneously, high in the axilla (just under the fore limb) on Day 0 with 5.0×10^6 cells in 0.2 ml of 50% serum-free medium: 50% Matrigel® Matrix using a 27-gauge needle and syringe.
All mice were sorted into study groups based on tumor burden (estimated from caliper measurements). Efficacy was evaluated by tumor volume/weight monitored during and after treatment. Tumor burden (mg) was measured three times weekly by using caliper measurements and converting to tumor mass by the formula for the volume of a prolate ellipsoid assuming unit density as: Tumor burden (mg)=(L×W^2)/2 • where L and W are the respective orthogonal tumor length and width measurements (mm). The criteria used for a successful distribution in this study was a mean tumor burden for all groups within 10% of the overall mean tumor burden for the study population Treatment began on Day 16 at an overall mean tumor burden of 197 mm^3. […]

The nature of assay [1]: Cell Titer Glo viability assay, summary over all cell lines tested. The settings on record: B-cell; range over the 17 cell lines of Table 1; read-out: EC50 values to inhibit cell viability, range over cell lines. Format: cell-based. The procedure:
as §1

As to `c1cn2cc(-c3ccc4cn[nH]c4c3)nc(Nc3ccc(N4CCOCC4)cc3)c2n1` [Compound of Formula I, 6-(1H-indazol-6-yl)-N-(4-morpholinophenyl)imidazo[1,2-a]pyrazin-8-amine], the half-maximal effective concentration (EC50) in the assay on SU-DHL-2, in the assay with SU-DHL-4, in the assay on SU-DHL-6, with OCI-LY3, in the assay with OCI-LY4 and with Pfeiffer was over 3 µM each time. In addition, the concentration for a half-maximal effect (EC50) in the assay on Mino and in the assay with OPM-2 was over 3 µM in each case. In addition, the “Day 31 % Tumor Growth Inhibition” value is given as 20% in the assay on SU-DHL-10 (ENTO 25 mg/kg BID + Vehicle for VCR Q7Dx3 (group 3)) and 39% with SU-DHL-10 (ENTO 75/50 mg/kg BID + Vehicle for VCR Q7Dx3 (group 2)). Besides, the “inhibition of tumor growth (in words)” value in the assay on SU-DHL-10 (Entospletinib dosed alone at 25 or 75/50 mg/kg) is listed as “inhibited tumor growth but to a lesser degree than that seen with vincristine”. In the assay on SU-DHL-10, the “complete or partial regressions (in words)” value is given as “no complete or partial regressions”. Also, the partial tumor regressions in the assay with SU-DHL-10 came to 0%.
Turning to `CC[C@]1(O)C[C@H]2CN(CCc3c([nH]c4ccccc34)[C@@](C(=O)OC)(c3cc4c(cc3OC)N(C=O)[C@H]3[C@@](O)(C(=O)OC)[C@H](OC(C)=O)[C@]5(CC)C=CCN6CC[C@]43[C@@H]65)C2)C1` [Vincristine, vincristine], the EC50 with SU-DHL-2 was 0.065 µM; in the assay on SU-DHL-4, 0.075 µM; in the assay on SU-DHL-6, 0.012 µM; in the assay with OCI-LY3 it was 0.012 µM; in the assay on OCI-LY4, under 0.001 µM; in the assay on Pfeiffer it was 0.004 µM. Moreover, the values for the EC50 (in the assay with Mino; in the assay with OPM-2; in assay [1]) were 0.042 µM, 0.097 µM and at most 0.103 µM, respectively. The results for the “Day 31 % Tumor Growth Inhibition” value in the assay on SU-DHL-10 (Vehicle for ENTO + VCR 0.15 mg/kg Q7Dx3 (group 5)) and in the assay on SU-DHL-10 (Vehicle for ENTO + VCR 0.5 mg/kg Q7Dx3 (group 4)) were 42% and 85%, respectively. For the same molecule, the “complete or partial regressions (in words)” value with SU-DHL-10 is listed as “no complete or partial regressions”. Further, in the assay with SU-DHL-10, the partial tumor regressions worked out at 0%. For the same molecule, the “inhibition of tumor growth (in words)” value in the assay with SU-DHL-10 (vincristine at both 0.15 and 0.5 mg/kg) is “significant inhibition of tumor growth”.
